Data: patent publication US20240216317A1, “COMPOSITION FOR PREVENTING, AMELIORATING OR TREATING INFLAMMATORY BOWEL DISEASE COMPRISING COMPOUND ISOLATED FROM ISODON EXCISUS AS EFFECTIVE COMPONENT” (HEALINNOLS INC., priority 2022, published 2024)

Test system: TNF-α
Experiment: TNF-α mRNA expression (qPCR) in zebra fish animal model of DSS-induced inflammatory bowel disease
Type: in vivo, zebra fish (Danio rerio: AB)
Conditions: FIG. 5; for expression amount of TNF-α compared to DSS model group: zebra fish larvae, 0.5% DSS, 5 hours treatment, Chemical formula 1 0.3 μM and 1 μM
Description: As a zebra fish animal model of inflammatory bowel disease, wild-type zebra fish (Danio rerio: AB) was used, which was kept in an exclusive breeding facility at conditions including light/dark cycle of 14 hours/10 hours and temperature of 28° C. All the animal experiments were carried out according to the protocol of Ethics Committee for Animal Expectation, Healinno-LS (Registration No.: AEC-20210720-0001), and all the materials were sterilized first before they are used for experiment.
According to a treatment with 0.5% DSS (dextran sulfate sodium, M.W. 36,000-50,000, #160110, MP), which induces “ulcerative colitis” as inflammatory bowel disease by creating a damage in colonic epithelial cells, a zebra fish was induced to have inflammatory bowel disease. Then, by threating the zebra fish with the compound represented by Chemical formula 1 of the present invention at different concentrations (0.3 μM and 1 μM), inhibitory activity on inflammatory bowel disease was examined.
As a zebra fish animal model of DSS-induced ulcerative colitis, zebra fish larvae 3 days after fertilization (3 dpf; days post fertilization) were used. 3 dpf zebra fish larvae were added to a 24-well plate, i.e., 20 larvae per well, and treated with 0.5% DSS to induce ulcerative colitis. After keeping them to 6 dpf zebra fish larva period, DSS was removed, and then they were treated for 5 hours with the compound represented by Chemical formula 1 of the present invention.
The zebra fish larvae which have been treated with the compound represented by Chemical formula 1 of the present invention were then added with TRIzol reagent (300 μl), and then homogenized by using a tissue homogenizer (G20, GINKO). Homogenized zebra fish larvae were maintained for 5 minutes at room temperature, and then treated with chloroform (60 μl). After removing proteins and cell debris, the mixture was centrifuged for 15 minutes at 12,000×g, 4° C. […] Purity and concentration were measured by using a microplate reader (FLUOstar omega, BMG Labtech), and the extracted total RNA was kept at −80° C. […]

SMILES | reduction of transcription amount of proinflammatory cytokines (zebra fish DSS model, TNF-α and IL-1β, compared with 5-ASA and prednisolone) | expression amount of TNF-α compared to DSS model group
COC(=O)C[C@H](OC(=O)/C=C/c1ccc(O)c(O)c1)c1ccc(O)c(O)c1 [Compound 1, 3-[3,4-dihydroxyphenyl]acrylic acid 1-[3,4-dihydroxyphenyl]-2-methoxycarbonylethyl ester] | much lower concentration than 5-ASA and prednisolone | statistically significantly lower
Nc1ccc(O)c(C(=O)O)c1 [Compound 5-ASA, 5-aminosalicylic acid, reference compound] |  | statistically significantly lower
